Data: PubChem BioAssay (NCI)
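1) Cells in 96-well plates. 2) Compound, 48 h, 5 concentrations. 3) Linear interpolation between surrounding doses. 4) Unreached endpoint = highest concentration. GI50: concentration for 50% inhibition of growth. The concentration for full growth arrest is given as TGI.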

How the values were obtained:
Assay in all cases: DTP human tumour cell line panel, 48 h
[1] = tested on: SK-OV-3 ovarian
[2] = tested on: HCT-15 colon
[3] = tested on: COLO 205 colon
[4] = tested on: 786-0 renal
[5] = tested on: M14 melanoma
[6] = tested on: SF-268 CNS
[7] = tested on: KM12 colon
[8] = tested on: SF-295 CNS
[9] = tested on: SW-620 colon
[10] = tested on: MDA-N
[11] = tested on: MDA-MB-231 breast
[12] = tested on: PC-3 prostate

Compound	TGI [1]	TGI [2]	TGI [3]	TGI [4]	TGI [5]	TGI [6]	TGI [7]	TGI [8]	TGI [9]	TGI [10]	TGI [11]	TGI [12]	GI50 [5]
CS(=O)(=O)c1c(N)c2nc(Cl)cn2c2nc3ccccc3nc12	> 100 µM	> 100 µM	> 100 µM	> 100 µM	> 100 µM	> 100 µM	> 100 µM	> 100 µM	> 100 µM				
c1ccc(C2=NOC3(c4ccccc4)SC4CCCCC4CN23)cc1 (stereo not drawn)	> 100 µM	> 100 µM	69.4 µM	> 100 µM	49.3 µM	95.5 µM	88.9 µM	> 100 µM	> 100 µM				
C/C1=C/C(C)CC(C)OC(=O)C(C)NC(=O)C(Cc2ccc(O)c(I)c2)N(C)C(=O)C(C)NC(=O)C(C)C1 (stereo not drawn)		12.1 µM		3.79 µM	48.8 µM	0.347 µM	24.3 µM	1.25 µM	> 100 µM	30.7 µM	0.963 µM		
O=C(Cc1csc(N=Nc2c(O)[nH]c3ccccc23)n1)Nc1ccccc1	> 100 µM	> 100 µM	> 100 µM	34.3 µM	> 100 µM	41.4 µM	> 100 µM	> 100 µM	> 100 µM		> 100 µM		
CCCCc1ccc(Nc2nc(=S)c3[nH]cnc3[nH]2)cc1		> 100 µM	31.2 µM	> 100 µM	> 100 µM	> 100 µM	25.8 µM	78.7 µM	60.9 µM		83.3 µM	> 100 µM	
C#CCN(N=O)C(=O)NC(CCCNC(=O)OCc1ccccc1)C(=O)OCc1ccccc1 (stereo not drawn)	> 100 µM	> 100 µM	> 100 µM	> 100 µM	> 100 µM	> 100 µM	> 100 µM	> 100 µM	> 100 µM				
CCN(CC)C(=S)SS(=O)(=O)c1ccc(Cl)cc1	> 100 µM	> 100 µM	> 100 µM	> 100 µM	31 µM	> 100 µM	24.4 µM	> 100 µM	37 µM	> 100 µM	> 100 µM		
Cc1nc(C(N)=S)sc1C(/C=C/c1ccc(Cl)c(Cl)c1)=N/NC(C)(C)C	> 100 µM	> 100 µM	> 100 µM	> 100 µM		> 100 µM	> 100 µM	> 100 µM	> 100 µM	> 100 µM	> 100 µM	> 100 µM	
CC(C)(C)NC(=O)NC12CC3CC(CC(F)(C3)C1)C2	> 100 µM		> 100 µM	> 100 µM	> 100 µM		> 100 µM		> 100 µM				
C=C(C)C1CC/C(C)=C/CC[C@]2(C)O[C@H]2CC/C(COC(C)=O)=C\[C@@H]1O (stereo partly drawn)	> 50 µM	> 50 µM	> 50 µM	> 50 µM	> 50 µM	> 50 µM	> 50 µM	> 50 µM	> 50 µM		> 50 µM	> 50 µM	8.28 µM
Cc1oc(N)c(S(=O)(=O)c2ccc(Cl)cc2)c1C	> 100 µM	> 100 µM		> 100 µM	> 100 µM	> 100 µM	> 100 µM	> 100 µM	> 100 µM			78 µM	
Cc1cc(S(=O)(=O)/N=C(\[N-]S(=O)(=O)c2ccc(Cl)cc2)[n+]2ccc(N(C)C)cc2)c(S)cc1Cl	> 100 µM	> 100 µM		> 100 µM	> 100 µM	> 100 µM	> 100 µM	> 100 µM	> 100 µM	> 100 µM	> 100 µM	> 100 µM	
O=C(C[n+]1ccccc1)N/N=C(\Cc1nc2ccc([N+](=O)[O-])cc2[nH]c1=O)C(=O)Nc1cc(Cl)c(Cl)cc1Cl	> 100 µM	> 100 µM	> 100 µM	> 100 µM	> 100 µM	> 100 µM	> 100 µM	> 100 µM	> 100 µM		> 100 µM	> 100 µM	
Clc1ccccc1C1=NN(c2ccccc2)C2c3ccccc3OCC12 (stereo not drawn)	> 100 µM		> 100 µM	> 100 µM		> 100 µM	> 100 µM	> 100 µM	> 100 µM				
COc1cc(C=C2C(C)=NN(c3cccc(Cl)c3)C23C(Cl)C(=O)N3c2nc3ccccc3s2)ccc1O (stereo not drawn)	59.5 µM	52.2 µM		43.7 µM	41.9 µM	16 µM	30.1 µM	> 100 µM	26 µM	74.7 µM	26.7 µM	30.4 µM	
C/C=C\C(CC(=O)NCCC1CN(S(=O)(=O)C(F)(F)F)c2ccccc21)CC(=O)OC (stereo not drawn)	> 100 µM	> 100 µM	63 µM	> 100 µM	> 100 µM		> 100 µM	> 100 µM	> 100 µM	> 100 µM	> 100 µM	> 100 µM	
COc1ccc(C2Oc3cc(OC)c(O)c(C)c3[C@H]2C)cc1 (stereo partly drawn)	> 100 µM	> 100 µM	> 100 µM	> 100 µM	> 100 µM	> 100 µM	> 100 µM	> 100 µM	> 100 µM				
COC(C(=O)C(O)C(C)O)C1CC2C=C3C=C(OC4CC(OC5CC(O)C(OC)C(C)O5)C(OC(C)=O)C(C)O4)C(C)C(=O)C3=C(O)C2=C(O)C1OC1CC(OC2CC(OC3CC(C)(O)C(OC(=O)C(C)C)C(C)O3)C(O)C(C)O2)C(O)C(C)O1 (stereo not drawn)	> 100 µM		< 0.01 µM	< 0.01 µM	< 0.01 µM	< 0.01 µM	< 0.01 µM			< 0.01 µM	< 0.01 µM		
C/C=C1/CN2CCC3(O)c4ccccc4N4C=C(C(=O)OC)C1CC2C43O (stereo not drawn)	> 100 µM	> 100 µM	> 100 µM	> 100 µM	> 100 µM	> 100 µM	> 100 µM	> 100 µM	> 100 µM	> 100 µM		> 100 µM	
CCOP(=O)(C/C=C/Cn1nc(Br)c(=O)[nH]c1=O)OCC		> 100 µM	> 100 µM	> 100 µM	> 100 µM	> 100 µM	> 100 µM	> 100 µM	> 100 µM	> 100 µM	> 100 µM	> 100 µM	
NC(=O)c1coc(C2OC(CO)C(O)C2O)n1 (stereo not drawn)	> 100 µM	> 100 µM	> 100 µM	> 100 µM	> 100 µM	> 100 µM	> 100 µM		> 100 µM				
